Here are results for 2 compounds from patent US20090182031A1, “Reduction of Hair Growth” (The Gillette Company, a Delaware corporation, priority 2004, published 2009).

The test system of the assay is human hair follicles. Briefly: Human hair follicle growth assay. The format is cell-based. The following applies: for % Reduction (hair growth): versus control. From the text: Human skin was obtained from a plastic surgeon as a by-product of face-lift procedures. The skin samples generally consisted of haired and non-haired regions taken from the area of the face. Immediately after removal, the skin was placed in Williams E medium containing antibiotics, and kept refrigerated. The Williams E medium was commercially obtained (Life Technologies, Gaithersburg, Md.), and has been formulated with essential nutrients for maintaining viability of hair follicle in an in-vitro environment.
Human hair follicles in growth phase (anagen) were isolated from face-lift tissue under a dissecting scope using a scalpel and watchmakers forceps. The skin was sliced into thin strips exposing 2-3 rows of follicles that could readily be dissected. Follicles were placed into 0.5 ml Williams E medium supplemented with 2 mM L-glutamine, 10 ug/ml insulin, 10 ng/ml hydrocortisone, 100 units penicillin, 0.1 mg/ml streptomycin and 0.25 μg/ml amphotericin B. The follicles were incubated in 24 well plates (1 follicle/well) at 37° C. in an atmosphere of 5% CO2 and 95% air. Hair follicle images were taken in the 24-well plates under the dissecting scope under a power of 20×. Hair follicle lengths were measured on day 0 (day follicles were placed in culture) and again on day 6-7. In this system follicles appear to fully differentiate into a hair fiber and increase in length at a rate similar to the human, in vivo, rate of about 0.3 mm/day. For testing inhibitors of heat shock proteins, the inhibitors or anti-HSP antibody were included in the culture medium from time 0 and remained in the medium throughout the course of the experiment.

Molecules are shown by their SMILES.

Regarding `O=CN1CCC(=Cc2ccc3c(c2)OCO3)C1=O` [KNK 437, 1-Pyrrolidinecarboxaldehyde, 3-(1,3-benzodioxol-5-ylmethylene)-2-oxo-(9CI)], the “% Reduction (hair growth)” value is 57% (10 μM, day 0 to day 5) and 80% (50 μM, day 0 to day 5). The “Length Increase (mm)” value runs as follows: (10 μM, follicle length day 5 minus day 0) 0.75 ± 0.13 mm; (50 μM, follicle length day 5 minus day 0) 0.35 ± 0.12 mm.
As for `COC1=C2C[C@@H](C)C[C@H](OC)[C@H](O)[C@@H](C)/C=C(\C)[C@H](OC(N)=O)[C@@H](OC)/C=C\C=C(/C)C(=O)NC(=CC1=O)C2=O` [Geldanamycin, 2-Azabicyclo[16.3.1]docosa-4,6,10,18,21-pentaene-3,20,22-trione, 9,13-dihydroxy-8,14,19-trimethoxy-4,10,12,16-tetramethyl-, 9-carbamate (8CI)], the “% Reduction (hair growth)” value reads like this: (0.1 μM, day 0 to day 6) 52%; (1 μM, day 0 to day 6) 74%. Also, the “Length Increase (mm)” value stood at 0.55 ± 0.13 mm (0.1 μM, follicle length day 6 minus day 0) and 0.30 ± 0.08 mm (1 μM, follicle length day 6 minus day 0). Moreover, the “reduction of hair growth” value (submicromolar dose) was “over 50%”.
